Efficacy data for 64 molecules are collected here from the supplement of paper PMC10290057.

Several values for one entry are separate records, joined by “and”; a condition that tells them apart may be missing. Identical values can stand only once. Counter-ions that a name gives are not always drawn.
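Note: Luminescence-based viability readout, five doses per compound, normalized against on-plate DMSO and empty-well controls, followed by dose-response curve fitting for every drug.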

In the test the test system is HCT116. Put plainly: efficacy (fitted maximal change in viability relative to DMSO control); higher = less cytotoxic (negative = loss of viability). The conditions noted are these: 48 h.
For the molecule `C[C@]12CCC\3=C\4CCC(=O)\C=C4CC[C@H]3[C@@H]1CC[C@@]2(O)CC#N` [Dienogest], the efficacy is -15.9%. The figure for `OC1=CC2=C(C(=C1)O)C(=O)\C=C(/O2)C3=CC(=C(O)C=C3)O` [Digitoflavone] is -77.5%.

For the molecule `c1ccc2c(Cc3c[nH]c4ccccc34)c[nH]c2c1` [Diindolylmethane], the efficacy is -49.5%. As for `COc1ccc([C@@H]2Sc3ccccc3N(CCN(C)C)C(=O)[C@@H]2OC(C)=O)cc1` [Diltiazem hydrochloride], the figure is -17.5%; as for `COC(=O)/C=C/C(=O)OC` [Dimethyl fumarate], -18.4%.

Regarding `COC1=CC=C(C=C1O)C/2=C/C(=O)C3=C(O2)C=C(O[C@@H]4O[C@H](CO[C@@H]5O[C@@H](C)[C@H](O)[C@@H](O)[C@H]5O)[C@@H](O)[C@H](O)[C@H]4O)C=C3O` [Diosmin], the efficacy is -15.2%. The figure for `CN(C)CCOC(c1ccccc1)c1ccccc1` [Diphenhydramine hydrochloride] is -12.9%. The figure for `OCCN(CCO)c1nc(N2CCCCC2)c2nc(N(CCO)CCO)nc(N3CCCCC3)c2n1` [Dipyridamole] is -30.3%; for `CC(=O)O[C@@]12CO[C@@H]1C[C@H](O)[C@@]1(C)C(=O)[C@H](O)C3=C(C)[C@@H](OC(=O)[C@H](O)[C@@H](NC(=O)OC(C)(C)C)c4ccccc4)C[C@@](O)([C@@H](OC(=O)c4ccccc4)[C@H]21)C3(C)C` [Docetaxel] it is -56.4%; for `CN(CCOc1ccc(N[S+](C)(=O)[O-])cc1)CCc1ccc(N[S+](C)(=O)[O-])cc1` [Dofetilide] it is -5.68%. As for `NCCc1ccc(O)c(O)c1` [Dopamine hydrochloride], the figure is -16.8%; as for `C[C@H](O)[C@H]1[C@@H]2[C@H](C)C(=C(\N2C1=O)C(O)=O)/S[C@@H]3CN[C@H](CN[S+](N)([O-])=O)C3` [Doripenem], 5.86%; as for `CCN[C@H]1C[C@H](C)[S+](=O)([O-])c2sc([S+](N)(=O)[O-])cc21` [Dorzolamide hydrochloride], -11%.

With `Cn1c(=O)c2c(ncn2CC2OCCO2)n(C)c1=O` [Doxofylline], the efficacy is -7.38%. Regarding `CC1C\2C(O)C3C(N(C)C)C(=O)\C(=C(O)/C3(O)C(=O)C2=C(O)/C4=C1C=CC=C4O)C(N)=O` (centres undefined) [Doxycycline], the efficacy is -26.7%. The figure for `C[C@@H]1[C@H]\2[C@H](O)[C@H]3[C@H](N(C)C)\C(=C(C(N)=O)/C(=O)[C@@]3(O)\C(=C2C(=O)C4=C(O)C=CC=C14)O)O` [Doxycycline] is 12.1%; for `C[C@]\12CCC(=O)\C=C1[C@@H]3C[C@@H]3[C@@H]4[C@@H]2CC[C@@]5(C)[C@H]4[C@@H]6C[C@@H]6[C@@]57CCC(=O)O7` [Drospirenone] it is -38.8%.

Regarding `C[C@]12CCC3[C@@H](CC[C@H]4NC(=O)\C=C/[C@]34C)[C@@H]1CC[C@@H]2C(=O)NC5=CC(=CC=C5C(F)(F)F)C(F)(F)F` (some centres undefined) [Dutasteride], the efficacy was -20%.

As for `Cn1c(=O)c2c(ncn2CC(O)CO)n(C)c1=O` (centres undefined) [Dyphylline], the efficacy was -13%. The figure for `O=C1NNc2nc(CN3Cc4ccccc4C3)nc3cccc1c23` [E-7449] is -29.7%. With `COc1ccc([S+](=O)([O-])Nc2cc(-c3csc(C#N)c3)ccc2C)cc1` [EL-102], the efficacy is -62%.

As to `CN1CCN(C(=O)[C@H]2[C@@H](C(=O)O)[C@H]3CC[C@@H]2O3)CC1` [EMPM], the efficacy is -12%. As for `C[C@@H](C1CC[C@@]2(O)C3=CC(=O)[C@@H]4C[C@@H](O)[C@@H](O)C[C@]4(C)[C@H]3CC[C@]12C)[C@H](O)CCC(C)(C)O` (some centres undefined) [Ecdysone], the figure is -17.9%; as for `C\C1=N\N(C(=O)C1)C2=CC=CC=C2` [Edaravone], -11.9%. As for `Cc1cc(Oc2ccc3nc(COc4ccc(CC5SC(=O)NC5=O)cc4)n(C)c3c2)cc(C)c1N` (centres undefined) [Efatutazone], the figure is -24.7%; as for `O=C1Nc2ccc(Cl)cc2[C@@](C#CC2CC2)(C(F)(F)F)O1` [Efavirenz], -85.4%. The figure for `NCCCC(N)(C(=O)O)C(F)F` (centres undefined) [Eflornithine Hydrochloride] is 19%; for `COc1cc2c(cc1OC)CN(CCc1ccc(NC(=O)c3cccc4c(=O)c5cccc(OC)c5[nH]c34)cc1)CC2` [Elacridar] it is -16.8%. Regarding `COC1=C(F)C(=CC=C1)C/2=C(C)/N(CC3=C(F)C=CC=C3C(F)(F)F)C(=O)N(C[C@H](NCCCC(O)=O)C4=CC=CC=C4)C2=O` [Elagolix], the efficacy is -32.8% and -32.2%.

For `CN(NC(=O)CC(=O)NN(C)C(=S)c1ccccc1)C(=S)c1ccccc1` [Elesclomol (STA-4783)], the efficacy is -39.3%. The figure for `CC1=NN(c2ccc(C)c(C)c2)C(=O)/C1=N/Nc1cccc(-c2cccc(C(=O)O)c2)c1O` [Eltrombopag olamine] is -17.2%. As for `COC1=CC2=C(C=C1CC3=C(F)C(=CC=C3)Cl)C(=O)\C(=C/N2[C@H](CO)C(C)C)C(O)=O` [Elvitegravir], the figure is -72.2%; as for `Cc1cc(O)c2c(c1)C(=O)c1cc(O)cc(O)c1C2=O` [Emodin], -31.9%. As for `CCOC(=O)[C@H](CCc1ccccc1)N[C@@H](C)C(=O)N1CCC[C@H]1C(=O)O` [Enalapril maleate], the figure is -15.7%. Turning to `CC/C(=C(/c1ccc(O)cc1)c1ccc(OCCNC)cc1)c1ccccc1` [Endoxifen], the efficacy is -71.8%. `CC1(C)[C@@H](O)CC[C@@]2(C)[C@H]1CC[C@]3(C)[C@@H]2C(=O)\C=C/4[C@@H]5C[C@](C)(CC[C@]5(C)CC[C@@]34C)C(O)=O` [Enoxolone]: the efficacy is -35.4%. For `CNC(=O)c1ccc(N2C(=S)N(c3ccc(C#N)c(C(F)(F)F)c3)C(=O)C2(C)C)cc1F` [Enzalutamide], the efficacy was -37%.

As to `N[S+](=O)([O-])NCCNc1nonc1/C(=N/O)Nc1ccc(F)c(Br)c1` [Epacadostat], the efficacy is -25.2%. The figure for `CNC[C@H](O)c1ccc(O)c(O)c1` [Epinephrine] is -17.8%. `COC(=O)[C@@H]1CC/2=C/C(=O)CC[C@]2(C)[C@@]34O[C@@H]3C[C@@]5(C)[C@@H](CC[C@@]56CCC(=O)O6)[C@H]14` [Eplerenone]: the efficacy was -6.15%. Regarding `C/C(=C\c1csc(C)n1)[C@@H]1C[C@@H]2O[C@@H]2CCC[C@H](C)[C@H](O)[C@@H](C)C(=O)C(C)(C)[C@@H](O)CC(=O)O1` [Epothilone A], the efficacy was -68.2%. As for `O=C(O)CSCC(=O)NC1CCSC1=O` (centres undefined) [Erdosteine], the figure is 9.04%; as for `CC[C@H]1OC(=O)[C@H](C)[C@@H](O[C@H]2C[C@@](C)(OC)[C@@H](O)[C@H](C)O2)[C@H](C)[C@@H](O[C@@H]2O[C@H](C)C[C@H](N(C)C)[C@H]2O)[C@](C)(O)C[C@@H](C)C(=O)[C@H](C)[C@@H](O)[C@]1(C)O` [Erythromycin], 23%; as for `C[C@]12CC[C@@H]3c4ccc(O)cc4CC[C@H]3[C@@H]1[C@@H](O)[C@@H](O)[C@@H]2O` [Estetrol], -16.1%. With `C[C@]12CC[C@@H]3c4ccc(O)cc4CC[C@H]3[C@@H]1C[C@@H](O)[C@@H]2O` [Estriol], the efficacy was -52.3%.

As for `C[C@]12CCC3c4ccc(O)cc4CCC3C1CCC2=O` (some centres undefined) [Estrone], the efficacy is -24.4%. In the case of `C#C[C@]1(O)CC[C@H]2[C@@H]3CCc4cc(O)ccc4[C@H]3CC[C@@]21C` [Ethinylestradiol], the efficacy is -54.2%. `CCC1(C)CC(=O)NC1=O` (centres undefined) [Ethosuximide]: the efficacy was -10.2%. With `Cc1ccc(-c2ncc(Cl)cc2-c2ccc([S+](C)(=O)[O-])cc2)cn1` [Etoricoxib], the efficacy was -16.9%. As for `CO[C@H]1C[C@@H]2CC[C@@H](C)[C@@](O)(O2)C(=O)C(=O)N2CCCC[C@H]2C(=O)O[C@H]([C@H](C)C[C@@H]2CC[C@@H](OCCO)[C@H](OC)C2)CC(=O)[C@H](C)/C=C(/C)[C@@H](O)[C@@H](OC)C(=O)[C@H](C)C[C@H](C)\C=C/C=C\C=C/1C` [Everolimus], the figure is -57.4%. Take `CC(=O)N[C@H]1CSSC[C@@H](C(N)=O)NC(=O)[C@H](C(C)C)NC(=O)[C@H](C)NC(=O)[C@H](Cc2cnc[nH]2)NC1=O` [Exherin]: the efficacy was -8%. The figure for `CCOC(=O)[C@@H](N)CCC(=O)N[C@@H](CSCc1ccccc1)C(=O)N[C@@H](C(=O)OCC)c1ccccc1` [Ezatiostat] is -18.5%; for `O=C1[C@H](CC[C@H](O)c2ccc(F)cc2)[C@@H](c2ccc(O)cc2)N1c1ccc(F)cc1` [Ezetimibe] it is -48.2%; for `CC[S+](=O)([O-])c1ccc2oc(-c3ccc4ccccc4c3)nc2c1` [Ezutromid] it is -24.2%. The figure for `CCC(=O)N[C@H]1CC[C@H](C(=O)N(C)c2ccc(-c3nc4ccccc4o3)cc2)C1` [FASN BI] is -31.4%; for `COC1=CC=CC=C1C2=CC=CC(=C2)C/3=C(O)/C4=CC(=C(Cl)C=C4NC3=O)C#N` [FASN MRK] it is -12.8%. For the molecule `O=C(O)CNC(=O)c1nc(Cl)c2ccccc2c1O` [FG-2216], the efficacy is -7.52%. As for `CC1(C)O[C@@H]2C[C@H]3[C@@H]4C[C@H](F)\C5=C\C(=O)\C=C/[C@]5(C)[C@H]4[C@@H](O)C[C@]3(C)[C@@]2(O1)C(=O)CO` [FLUNISOLIDE], the figure is -18.4%. As for `CCN1C(=O)\C(=C/C2=CN=C(NCCC3CCN(C)CC3)N=C12)C4=CC=C(C=C4Cl)C5=CN=CC(=N5)C` [FRAX-1036], the figure is -62.9%; as for `N#Cc1ccc(C2CCCc3cncn32)cc1` (centres undefined) [Fadrozole], -10.8%; as for `CC(=O)OCC(CCn1cnc2cnc(N)nc21)COC(C)=O` [Famciclovir], -14.2%.

Turning to `NC(=O)c1nc(F)cnc1O` [Favipiravir], the efficacy is -17.6%. As for `Cc1nc(-c2ccc(OCC(C)C)c(C#N)c2)sc1C(=O)O` [Febuxostat], the figure is 3.94%. The figure for `CN1CC(=O)\N=C1\NC(=O)NC2=CC(=CC=C2)Cl` [Fenobam] is 5.7%.
